Assay results taken from PubChem BioAssay AID2060331 (Molecular Pharmacology Branch, DTP, NCI, 2025).
pIC50: −log10 of the molar value. Where “and” joins values, the source holds several entries; their conditions need not be identical. Equal entries are not always repeated.

Test system: Hs578T multi-cell spheroids, viability
Assay: Anticancer human tumor Hs578T cell line growth inhibition [IpAb];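 note: drug exposure lasted 7 days before readout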
Details: for viability, T/C: stronger effect = lower value
Description: Combinatorial screen of targeted agents with ipatasertib and abemaciclib in multi-cell type tumor spheroids
A high-throughput screen of multi-cell type tumor spheroids was designed to identify active combinations of targeted small molecules and ipatasertib or abemaciclib. Complex spheroids include a stromal component modeled by human endothelial cells (HUVEC) and fibroblasts modeled by human mesenchymal stem cells (MSCs). The concentration ranges selected for each drug and investigational agent were based upon clinically achievable concentrations if the clinical Cmax of the agent was known.
Compounds. The drugs and investigational agents: ipatasertib (NSC767898), abemaciclib(NSC768073), selumetinib (NSC741078), trametinib (758246), adavosertib (NSC754352), everolimus (NSC733504), sapanisertib (NSC764658), vemurafenib (NSC761431), venetoclax (NSC766270), copanlisib (NSC809693), apelisib (NSC765974), palbociblib (NSC758247), vemurafenib (NSC761431), dabrafenib (NSC764134), ravoxertinib (NSC781343), BMS-387032 (NSC767048), sotorasib (NSC818433), talazoparib (NSC767125) and afursertib (NSC778305), were obtained from the National Cancer Institute (NCI) Developmental Therapeutics Program Chemical Repository. The FDA-approved anticancer drug set is available from the NCI Developmental Therapeutics Program. […] The stock solutions were prepared in dimethyl sulfoxide (DMSO, Sigma-Aldrich, St. Louis, MO, cat. D2650) at 800-fold the tested concentration and stored at -70 degrees C prior to their use. All drugs and investigational agents were tested over a range starting from a high concentration at or near the clinical Cmax and decreasing in half-log increments. If the clinical Cmax for an agent had not been determined, the highest concentration tested was 10 microM.
NCI60 Cell Culture. NCI60 cell lines were obtained from the NCI Developmental Therapeutics Program Tumor Repository. For each lot of cells, the Repository performed Applied Biosystems AmpFLSTR Identifiler testing with PCR amplification to confirm consistency with the published Identifier STR profile for each cell line. Cells were kept in continuous culture for no more than 20 passages. The optimal seeding densities for each of the cell lines at each time point assessed were determined prior to performing the concentration response studies. Briefly, the NCI60 human tumor lines were grown as monolayers in RPMI 1640 medium supplemented with 10% FBS and 2 mmol/L L-glutamine.
An additional 9 lines were from the NCI60 cell line panel including MDA-MB-231 breast carcinoma, MDA-MB-468 breast carcinoma, MCF7 breast carcinoma, Hs578T breast carcinoma, MALME-3M melanoma, SK-MEL-2 melanoma, SK-OV-3 ovarian carcinoma, DU-145 prostate carcinoma, PC-3 prostate carcinoma, all cell lines along with major genetic alterations are listed on Table 2. Pooled donor human umbilical vein endothelial cells (HUVEC, Lonza, cat. CC-2519) and human mesenchymal stem cells (hMSC, Lonza, cat. PT-2501) were purchased from Lonza (Walkersville, MD).
PDMR cell lines were grown in complete medium (DC medium): Dulbecco's modified Eagle's medium (DMEM)/F12 supplemented with 5% fetal bovine serum (FBS), 2 mM L-glutamine, 100 U/mL penicillin and 100 µg/ml streptomycin, 0.4 µg/ml hydrocortisone, 10 ng/ml epidermal growth factor (EGF) recombinant human protein, 24 µg/mL adenine, and 0.1 mg/mL primocin. During culture from frozen stock vials, PDMR cells were cultured in the same medium containing 10 µM Y-27632 (see Table 3). The PDCs were cultured in complete DMEM/F12 media without 10 microM Y-27632 dihydrochloride for at least two passages prior to the screen. The pooled donor HUVEC and hMSC were cultured in endothelial cell growth medium 2 (PromoCell, Heidelberg, Germany, cat. C-22011) and mesenchymal stem cell growth medium 2 (PromoCell, cat. C-28009), respectively. For all experiments, HUVEC and hMSC were used at passages </=5.
[…]

[1] = curve of first compound, second compound 0.1 µM
[2] = curve of first compound, second compound 0.316 µM
[3] = curve of first compound, second compound 1 µM
[4] = curve of first compound, second compound 3.16 µM
[5] = curve of first compound, second compound 10 µM
[6] = second compound 0.1 µM, first compound 0.0316 µM
[7] = second compound 0.1 µM, first compound 0.1 µM
[8] = second compound 0.316 µM, first compound 0.0316 µM
[9] = second compound 0.316 µM, first compound 0.1 µM
[10] = second compound 1 µM, first compound 0.0316 µM
[11] = second compound 1 µM, first compound 0.1 µM
[12] = second compound 3.16 µM, first compound 0.0316 µM
[13] = second compound 3.16 µM, first compound 0.1 µM
[14] = second compound 10 µM, first compound 0.0316 µM
[15] = second compound 10 µM, first compound 0.1 µM

**Q.** Which results are given for `Cc1nc(NC(=O)N2CCCC2C(N)=O)sc1-c1ccnc(C(C)(C)C(F)(F)F)c1` (configuration not stated) + CC(C)NCC(C(=O)N1CCN(c2ncnc3c2C(C)CC3O)CC1)c1ccc(Cl)cc1?
**A.** pIC50 [1]: 5.80; pIC50 [2]: 6.01; pIC50 [3]: 6.31; pIC50 [4]: 7.00; pIC50 [5]: > 7.50; viability, T/C [6]: 96.8%; viability, T/C [7]: 87.8%; viability, T/C (second compound 0.1 µM, first compound 0.316 µM): 70.8%; viability, T/C (second compound 0.1 µM, first compound 1 µM): 57.4%; viability, T/C (second compound 0.1 µM, first compound 3.16 µM): 42.6%; viability, T/C (second compound 0.1 µM, first compound 10 µM): 11.7%; viability, T/C [8]: 80.1%; viability, T/C [9]: 71.3%; viability, T/C (second compound 0.316 µM, first compound 0.316 µM): 57.1%; viability, T/C (second compound 0.316 µM, first compound 1 µM): 48.7%; viability, T/C (second compound 0.316 µM, first compound 3.16 µM): 41%; viability, T/C (second compound 0.316 µM, first compound 10 µM): 13.9%; viability, T/C [10]: 61.8%; viability, T/C [11]: 61.4%; viability, T/C (second compound 1 µM, first compound 0.316 µM): 53.9%; viability, T/C (second compound 1 µM, first compound 1 µM): 42.3%; viability, T/C (second compound 1 µM, first compound 3.16 µM): 30.6%; viability, T/C (second compound 1 µM, first compound 10 µM): 8.93%; viability, T/C [12]: 53.6%; viability, T/C [13]: 51%; viability, T/C (second compound 3.16 µM, first compound 0.316 µM): 44.1%; viability, T/C (second compound 3.16 µM, first compound 1 µM): 35%; viability, T/C (second compound 3.16 µM, first compound 3.16 µM): 32.5%; viability, T/C (second compound 3.16 µM, first compound 10 µM): 9.58%; viability, T/C [14]: 45.3%; viability, T/C [15]: 42.1%; viability, T/C (second compound 10 µM, first compound 0.316 µM): 39.2%; viability, T/C (second compound 10 µM, first compound 1 µM): 28.8%; viability, T/C (second compound 10 µM, first compound 3.16 µM): 21.8%; viability, T/C (second compound 10 µM, first compound 10 µM): 1.81%

**Q.** How did the viability, T/C (compound 0.0316 µM) turn out when `C=CC(=O)N1CCN(c2nc(=O)n(-c3c(C)ccnc3C(C)C)c3nc(-c4c(O)cccc4F)c(F)cc23)C(C)C1` (configuration not stated) was run?
**A.** 103% and 104%

**Q.** What about the viability, T/C (compound 0.1 µM) of the same compound?
**A.** 103% and 109%

**Q.** What about the viability, T/C (compound 0.316 µM) of the same compound?
**A.** 113% and 116%

**Q.** What about the viability, T/C (compound 1 µM) of the same compound?
**A.** 108% and 111%

**Q.** And the viability, T/C (compound 3.16 µM)?
**A.** 106% and 95.6%

**Q.** And the viability, T/C (compound 10 µM)?
**A.** 73.4% and 68.4%

**Q.** What about the pIC50 (curve of compound) of the same compound?
**A.** < 5.00

**Q.** What does the source list for `CC(C)n1nc(-c2ccc3oc(N)nc3c2)c2c(N)ncnc21` + CC(C)NCC(C(=O)N1CCN(c2ncnc3c2C(C)CC3O)CC1)c1ccc(Cl)cc1?
**A.** pIC50 [1]: 8.23; pIC50 [2]: 8.45; pIC50 [3]: 8.86; pIC50 [4]: > 9.50; pIC50 [5]: > 9.50; viability, T/C (second compound 0.1 µM, first compound 0.000316 µM): 94.8%; viability, T/C (second compound 0.1 µM, first compound 0.001 µM): 86.6%; viability, T/C (second compound 0.1 µM, first compound 0.00316 µM): 63.7%; viability, T/C (second compound 0.1 µM, first compound 0.01 µM): 38.6%; viability, T/C [6]: 19.9%; viability, T/C [7]: 15.5%; viability, T/C (second compound 0.316 µM, first compound 0.000316 µM): 79.2%; viability, T/C (second compound 0.316 µM, first compound 0.001 µM): 72.4%; viability, T/C (second compound 0.316 µM, first compound 0.00316 µM): 50.8%; viability, T/C (second compound 0.316 µM, first compound 0.01 µM): 30.7%; viability, T/C [8]: 14.2%; viability, T/C [9]: 11.8%; viability, T/C (second compound 1 µM, first compound 0.000316 µM): 61.7%; viability, T/C (second compound 1 µM, first compound 0.001 µM): 55.3%; viability, T/C (second compound 1 µM, first compound 0.00316 µM): 37.2%; viability, T/C (second compound 1 µM, first compound 0.01 µM): 20.7%; viability, T/C [10]: 14%; viability, T/C [11]: 12.2%; viability, T/C (second compound 3.16 µM, first compound 0.000316 µM): 47.4%; viability, T/C (second compound 3.16 µM, first compound 0.001 µM): 41.4%; viability, T/C (second compound 3.16 µM, first compound 0.00316 µM): 28.4%; viability, T/C (second compound 3.16 µM, first compound 0.01 µM): 17.3%; viability, T/C [12]: 12.2%; viability, T/C [13]: 10.4%; viability, T/C (second compound 10 µM, first compound 0.000316 µM): 48.1%; viability, T/C (second compound 10 µM, first compound 0.001 µM): 35.9%; viability, T/C (second compound 10 µM, first compound 0.00316 µM): 25.4%; viability, T/C (second compound 10 µM, first compound 0.01 µM): 12%; viability, T/C [14]: 11.4%; viability, T/C [15]: 8.97%
